Reference: publication PMC12040169 (PLOS Biology, 2025)

Assay: in vitro
Conditions: human, hela cells, % viability

Row | Structure (SMILES) | viability at 28.5 h, 10 µM [%]
1 | CCCn1cnnc1C(C)NC(=O)Nc1ccnn1CC1CCCCC1 (stereo not shown) [CBK306800] | 105
2 | CN1CCC(Cc2nc(CC3CCCOC3)n(CC(F)(F)F)n2)CC1 (stereo not shown) [CBK306801] | 83.2
3 | CCC(c1cccnc1)N(C)C(=O)c1ccc(=O)n(C)c1 (stereo not shown) [CBK306802] | 101
4 | COc1cccc(C(=O)NCCC(=O)N2CCC3(CC2)CNC(=O)O3)c1 [CBK306803] | 88.2
5 | CCc1noc(C)c1C(=O)NCc1cccnc1N(C)C1CCCCC1 [CBK306804] | 98.9
6 | CCOCCNC(=O)c1coc(COc2ccc3sc(C)nc3c2)n1 [CBK306805] | 109
7 | Cc1nccnc1N1CCC2(CCCN(CC3CCC3)C2=O)C1 (stereo not shown) [CBK306806] | 103
8 | CN(Cc1ccc(CN2CCOC(c3ccccc3)C2)o1)S(C)(=O)=O (stereo not shown) [CBK306808] | 88.2
9 | Cc1cc(=O)c2ccccc2n1CC(=O)N1CCC2(CCO2)CC1 [CBK306809] | 88.5
10 | CC(NC(=O)C1(Cn2ccnc2)CC1)c1cccnc1 (stereo not shown) [CBK306812] | 97.3
11 | CCCc1cc(C(=O)N2CCN(C)C3(CCNC(=O)CC3)C2)ccn1 (stereo not shown) [CBK306815] | 96.2
12 | Cc1nnnn1CCC(=O)NCCc1cn2ccccc2n1 [CBK306816] | 121
13 | Cc1ccc(C(=O)NC(CC(C)C)c2nnc3n2CCNCC3)c(F)c1 (stereo not shown) [CBK306817] | 85
14 | Cn1c(O)c(CCNc2cc([C@H]3C[C@@H](N)C3)nc(C3CC3)n2)cnc1=O [CBK306819] | 85
15 | O=c1c2c(-c3ccc(F)cc3)csc2ncn1CC1(CO)CCOCC1 [CBK306822] | 88
16 | CCN1CC2(CCC1=O)CCN(Cc1cccc(CCN)c1)CC2 [CBK306823] | 100
17 | Cn1c(N2CC[C@H](O)C2)nc2cc(C(=O)NCCc3cscn3)ccc21 [CBK306824] | 88.5
18 | CC(C)c1nc(CCNC(=O)C2(Cn3ccnc3)CC2)no1 [CBK306828] | 86.2
19 | CC(C)[C@H]1CN(Cc2cc(C#N)n(C)c2)C[C@@H]1NC(=O)C1CCC1 [CBK306832] | 91.6
20 | COc1cncc(C(NC(=O)c2cc(=O)cc(C)o2)[C@H]2C[C@@H](O)C2)c1 (stereo partly shown) [CBK306833] | 97.5
21 | CCn1nc(-c2ccc(C)o2)nc1CC1NC(=O)c2ccccc21 (stereo not shown) [CBK306834] | 87

Row | Structure (SMILES) | viability at 28.5 h, 10 µM [%]
22 | COc1ccccc1C(=O)N1CCN(c2nc3c(s2)c(C)nn3C)CC1 [CBK306836] | 86.6
23 | CSc1cccc(CN(C)C(=O)c2cc(C#N)c(=O)[nH]c2C)c1 [CBK306839] | 93
24 | Cc1ccc(OCc2occc2C(=O)N2CCCCC(N)C2)cc1 (stereo not shown) [CBK306840] | 107
25 | O=C(c1coc(COc2cccc(F)c2)n1)N1CC(n2cccn2)C1 [CBK306842] | 77.2
26 | CCC(NC(=O)Nc1cc(N2CCOCC2)ccc1Cl)c1cnn(C)c1 (stereo not shown) [CBK306844] | 114
27 | COCc1nc(NCCCn2c(C)cccc2=O)cc(C2CCOC2)n1 (stereo not shown) [CBK306845] | 90.9
28 | CCC1(C)CC(=O)c2cc(NC(=O)N3CCc4n[nH]cc4C3)ccc2O1 (stereo not shown) [CBK306846] | 90.3
29 | Cc1cc(C)n(CCNC2CCN(c3ccccc3C)CC2)c(=O)n1 [CBK306848] | 89.1
30 | CN(CCOc1ccccc1)c1cc(C2CC(N)C2)nc(N)n1 (stereo not shown) [CBK306849] | 97
31 | COc1cc2c(cc1-c1nccn1CC1CN(C(C)=O)CCO1)CCC2 (stereo not shown) [CBK306850] | 88.7
32 | COc1ncnc(C)c1-c1cc(C)c(OC)c(C)c1 [CBK306852] | 100
33 | CCOC(=O)N1CCN(C2CCCN(Cc3c(C)nn(C)c3Cl)C2)CC1 (stereo not shown) [CBK306853] | 96.2
34 | CN(CC(O)CO)C(=O)c1coc(COc2cccc(F)c2)n1 (stereo not shown) [CBK306854] | 88.5
35 | Cc1cccn2c(CN3CC(O)C3)c(C(=O)N3CCOCC3)nc12 [CBK306857] | 104
36 | CN(C)c1ccc(-c2nc(N(C)C)n(C)n2)cn1 [CBK306858] | 90.1
37 | Cc1ccc(F)c(OC2(C(=O)O)CCN(Cc3cnc(C)nc3)CC2)c1 [CBK306860] | 100
38 | COc1nccc(N2CCC3(CCCN(CC4CCC4)C3=O)C2)c1C#N (stereo not shown) [CBK306861] | 84.3
39 | CCn1cc(CN(CC(C)C)C(=O)c2c(C)nc3ccccn23)cn1 [CBK306862] | 97.8
40 | CCC(O)CNc1ccc(C(=O)N2CCC(N3CCOCC3)CC2)cn1 (stereo not shown) [CBK306865] | 95.1
41 | Cc1cccc(C(=O)NC(CC(C)C)c2nnc3n2CCNCC3)n1 (stereo not shown) [CBK306866] | 108
42 | COc1ccccc1-n1nc(-c2ccncc2)nc1C(C)NS(C)(=O)=O (stereo not shown) [CBK306868] | 98

Row | Structure (SMILES) | viability at 28.5 h, 10 µM [%]
43 | Cn1nnnc1SCCNC(=O)Nc1cccc(CN2CCCCC2)c1 [CBK306872] | 97.3
44 | CC1CCCN(C(=O)c2coc(COc3ccc(F)cc3)n2)C1 (stereo not shown) [CBK306874] | 85.5
45 | CNc1nc(NCCCn2c(C)cccc2=O)cc(C2CCOC2)n1 (stereo not shown) [CBK306875] | 117
46 | CCCN(C(=O)c1coc(COc2ccc3sc(C)nc3c2)n1)C1CC1 [CBK306878] | 84
47 | CCN(C(=O)Cn1cccc(OC)c1=O)C1CCOC(C)(C)C1 (stereo not shown) [CBK306879] | 86.5
48 | CCN1CC2(CCCN(Cc3nnc(-c4cccnc4)o3)C2)CCC1=O (stereo not shown) [CBK306881] | 86.4
49 | CCCC(=O)NC1CC(C)(C)Cc2nc(N3CCOCC3)ncc21 (stereo not shown) [CBK306883] | 94.7
50 | CC(C)c1nccc(CN2CCC(CCN3CCCC3=O)CC2)n1 [CBK306887] | 116
51 | O=C(CCNCCc1c[nH]c(=O)[nH]c1=O)Nc1cccc(Cl)c1 [CBK306889] | 86.3
52 | COCCN(Cc1cnn(C)c1)C(=O)c1nc2ccccn2c1F [CBK306892] | 100
53 | Cc1ncsc1CCN(C)C(=O)Cn1nc(C)c2ccccc2c1=O [CBK306893] | 86.3
54 | Cn1ccnc1CNc1nc(C(C)(C)C)nc2c1cnn2C [CBK306894] | 100
55 | Cc1nc(C2CC(=O)N(Cc3ccccn3)C2)n(-c2ccccc2F)n1 (stereo not shown) [CBK306895] | 89.6
56 | COc1ccc2c(c1)c(C(=O)N1CC(C)(C)C(C)(O)C1)c(C)n2C (stereo not shown) [CBK306896] | 77.2
57 | CC(C)N(C(=O)c1ccccc1-c1cnc2cccnn12)C(C)C [CBK306900] | 97.8
58 | COCCn1ccnc1C1CCN(C(=O)C(O)c2cccc(Cl)c2)CC1 (stereo not shown) [CBK306901] | 99.8
59 | CC(C)n1ccnc1CN1CCn2nc(CNc3cnccn3)cc2C1 [CBK306902] | 98.7
60 | Cc1cc(C)n(CCCC(=O)N2CCC3(CC2)CC(=O)N(C)C3)n1 [CBK306905] | 90.5
61 | Cc1nnc(SCC(=O)N2CCCN(c3ccc(F)cc3)CC2)s1 [CBK306908] | 88.7
62 | COCCn1cnnc1CN(C)C(=O)NCc1cc2ccccc2s1 [CBK306911] | 98.6
63 | CCCN1CC(NC(=O)c2cc(COc3cccc(F)c3)[nH]n2)CC1=O (stereo not shown) [CBK306912] | 82.2

Row | Structure (SMILES) | viability at 28.5 h, 10 µM [%]
64 | Cc1cccnc1CN(C)C(=O)c1cccc(NC(=O)C2CCCC2)c1 [CBK306913] | 82.9
65 | CC(=O)Oc1c(C)cc(CN(C)C(C)c2ccncc2)cc1C (stereo not shown) [CBK306915] | 73.2
66 | CCN(C(=O)Nc1ccc(-c2ccco2)cc1)C1CCOCC1 [CBK306916] | 95.8
67 | COC[C@H](C)Nc1ccc(C(=O)N2CCC(N3CCOCC3)CC2)cn1 [CBK306917] | 84.8
68 | Cc1nn2cc(CNC(=O)CN3CCOc4ccccc4C3)nc2s1 [CBK306921] | 89
69 | CCn1cc(Cl)c(C(=O)NC2CCN(c3cnccn3)CC2)n1 [CBK306922] | 95.5
70 | CCc1ocnc1C(=O)NC1CCCN(Cc2ccccc2F)C1 (stereo not shown) [CBK306924] | 104
71 | CC(C)CNC(=O)c1cccc(NC(=O)N2CCC2c2cccs2)c1 (stereo not shown) [CBK306927] | 99.9
72 | CCc1nccn1CC(=O)N(C)C1CCCN(Cc2ccccc2F)C1 (stereo not shown) [CBK306928] | 102
73 | COc1cccc(OCC2CCCN(C(=O)CCc3cnn(C)c3)C2)c1 (stereo not shown) [CBK306931] | 85
74 | CC(=O)N1CCc2nc(CC3CC3)nc(NCCn3ccnn3)c2CC1 [CBK306933] | 94.7
75 | COCCN(Cc1ccccc1C)C(=O)C1CCc2nn(C)c(=O)n2C1 (stereo not shown) [CBK306934] | 80.8
76 | CCCCC(c1cccnc1)N(C)C(=O)Cn1ccccc1=O (stereo not shown) [CBK306936] | 104
77 | COc1cccc2ncn(Cc3n[nH]c(C)n3)c(=O)c12 [CBK306938] | 89.7
78 | COc1c(C)cc(-c2[nH]c(C)nc2C)cc1C [CBK306941] | 86.6
79 | CC1(C)Cc2nc(N3CCOCC3)ncc2C(NC(=O)C2CCC2)C1 (stereo not shown) [CBK306943] | 83.8
80 | CCCC(=O)NCC1Cc2cc(F)cc(-c3ccc(C(C)=O)s3)c2O1 (stereo not shown) [CBK306945] | 90.3
81 | CCN1CCC2(CCC1=O)CN(Cc1cncn1CC(C)C)CCN2C (stereo not shown) [CBK306947] | 96
82 | Cc1cccnc1CN1CCN(C(=O)NCCSc2nncn2C)CC1 [CBK306949] | 89.9
